Values quoted from earlier work as cited in patent US20100029771A1, “TREATMENT OF ADDICTIVE DISORDERS” (priority 2008, published 2010).

How the values were obtained:
[1] = alcoholic subjects; each drug given individually
[2] = clinical trials
[3] = limited to the first months of treatment

SMILES | effect on craving [1] | effect on anxiety ([2]; alcoholic and non-alcoholic subjects) | side effect [2] | duration of benefits on alcohol craving and intake [3] [months]
NCC(CC(=O)O)c1ccc(Cl)cc1 (stereo not shown) [baclofen, 4-amino-3-(4-chlorophenyl)butanoic acid] | reduce craving | reduce anxiety | somnolence being an overwhelming side effect | 
O=C1CC[C@@]2(O)[C@H]3Cc4ccc(O)c5c4[C@@]2(CCN3CC2CC2)[C@H]1O5 [naltrexone] |  |  |  | ≤ 3
